Test in all cases: Anti-proliferation assay (ATPLite), Chalice synergy score
Holding throughout (type): cell-based
Background: In ATP-based viability assays light output follows the ATP content of the culture.

The test system of one assay is BT-20. Also noted: scale not given here. As to conditions: Compound 1 in combination with the named second active agent, 72 h, mean of n = 3 experiments in triplicate. From the text: (§1) Cells were thawed from a liquid nitrogen preserved state.
(§2) The calculation for synergy score is provided below.
(§3) If T≧V0:100*[1−(T−V0)/(V−V0)]

A further assay relates to HCC-1187. Also noted: scale not given here. The following applies: Compound 1 in combination with the named second active agent, 72 h, mean of n = 3 experiments in triplicate.
Text: as §1, §2, §3

The next assay concerns HCC-1500. Further details: scale not given here. The following applies: Compound 1 in combination with the named second active agent, 72 h, mean of n = 3 experiments in triplicate.
Text: as §1, §2, §3

Another assay has as its system BT-474. As to conditions: Compound 1 in combination with the named second active agent, 72 h, mean of n = 3 experiments in triplicate.
Text: as §1, §2, §3

Another assay relates to BT-549. As to conditions: Compound 1 in combination with the named second active agent, 72 h, mean of n = 3 experiments in triplicate.
Text: as §1, §2, §3

The next assay relates to HCC-1428. As to conditions: Compound 1 in combination with the named second active agent, 72 h, mean of n = 3 experiments in triplicate.
Text: as §1, §2, §3

A further assay has as its system HCC-1806. The following applies: Compound 1 in combination with the named second active agent, 72 h, mean of n = 3 experiments in triplicate.
Text: as §1, §2, §3

The test system of another assay is HCC-1937. The following applies: Compound 1 in combination with the named second active agent, 72 h, mean of n = 3 experiments in triplicate.
Text: as §1, §2, §3

The test system of the next assay is HCC70. The following applies: Compound 1 in combination with second active agent; HCC-70; mean self-cross + 2σ threshold 3.45.
Text: as §1, §2, §3

In the next assay the test system is Hs-578-T. The following applies: Compound 1 in combination with second active agent, mean self-cross + 2σ threshold 4.09.
Text: as §1, §2, §3

The test system of another assay is MCF7. The following applies: Compound 1 in combination with second active agent, mean self-cross + 2σ threshold 3.07.
Text: as §1, §2, §3

For another assay, the system named is MDA-MB-157. As to conditions: Compound 1 in combination with second active agent, mean self-cross + 2σ threshold 4.68.
Text: as §1, §2, §3

The next assay deals with MDA-MB-231. The following applies: Compound 1 in combination with second active agent, mean self-cross + 2σ threshold 2.61.
Text: as §1, §2, §3

For a further assay, the system named is MDA-MB-436. As to conditions: Compound 1 in combination with second active agent, mean self-cross + 2σ threshold 1.91.
Text: as §1, §2, §3

The subject of the next assay is MDA-MB-468. The following applies: Compound 1 in combination with second active agent, mean self-cross + 2σ threshold 4.66.
Text: as §1, §2, §3

As for `OCCn1cc(-c2cnc3nnn(Cc4ccc5ncccc5c4)c3n2)cn1` [PF-04217903], the Synergy score is 0.05 in the assay on BT-20; 0.17 in the assay on HCC-1187; 0.11 in the assay on HCC-1500; 0.57 in the assay on BT-474; 0.04 with BT-549; 0.31 in the assay with HCC-1428. The Synergy score came out at 0.39 in the assay on HCC-1806; 0.44 in the assay on HCC-1937; 0.33 in the assay on HCC70; 1.12 in the assay on Hs-578-T; 0.20 in the assay with MCF7; 0.75 in the assay on MDA-MB-157. In addition, the values for the Synergy score with MDA-MB-231, with MDA-MB-436 and in the assay with MDA-MB-468 were 0.53, 0.08 and 1.09, respectively.
Regarding `O=C(NC[C@H](O)CO)c1ccncc1Nc1ccc(I)cc1F` [AS703026], the Synergy score in the assay with BT-20 is 6.08; in the assay with HCC-1187 it was 8.22; in the assay on HCC-1500, 4.24; in the assay with BT-474 it was 2.61; in the assay on BT-549 it was 1.73; in the assay on HCC-1428 it was 6.26. The Synergy score with HCC-1806 came to 4.71; in the assay on HCC-1937 it was 2.41; in the assay with HCC70, 13.70; in the assay on Hs-578-T it was 6.43; in the assay with MCF7, 2.90; in the assay on MDA-MB-157, 6.66. The results for the Synergy score in the assay on MDA-MB-231, in the assay with MDA-MB-436 and in the assay on MDA-MB-468 were 10.90, 2.25 and 5.71, respectively.
Take `C[C@]1(c2nc3c(C(N)=O)cccc3[nH]2)CCCN1` [ABT-888]: the Synergy score in the assay with BT-20 was 0.33; in the assay with HCC-1187 it was 1.28; with HCC-1500, 1.13; in the assay with BT-474, 0.09; in the assay with BT-549, 0.35; with HCC-1428 it was 0.09. For the same compound, the Synergy score in the assay on HCC-1806 is on record as 0.56; in the assay with HCC-1937 it was 0.35; with HCC70, 1.10; in the assay with Hs-578-T, 0.42; with MCF7, 0.25; with MDA-MB-157, 0.90. For the same compound, the results for the Synergy score with MDA-MB-231, in the assay with MDA-MB-436 and with MDA-MB-468 were 0.22, 0.32 and 0.18, respectively.
Consider `OCCn1cc(-c2ccc3c(c2)CC/C3=N\O)c(-c2ccncc2)n1` [GDC-0879], for which the Synergy score in the assay on BT-20 was determined as 0.00; in the assay with HCC-1187, 0.85; in the assay with HCC-1500, 0.91; with BT-474, 0.46; with BT-549, 0.08; with HCC-1428, 0.13. Further, the Synergy score in the assay with HCC-1806 stood at 0.47; with HCC-1937 it was 0.29; in the assay on HCC70, 0.43; with Hs-578-T it was 0.75; in the assay with MCF7, 0.11; in the assay on MDA-MB-157, 0.69. Moreover, the values for the Synergy score in the assay with MDA-MB-231, with MDA-MB-436 and in the assay on MDA-MB-468 were 0.54, 0.13 and 0.44, respectively.
Regarding `COc1c(C)cnc(Cn2cnc3c(Cl)nc(N)nc32)c1C` [BIIB021], the Synergy score is reported as 3.71 in the assay with BT-20; 0.45 in the assay on HCC-1187; 1.11 with HCC-1500; 2.83 with BT-474; 0.12 in the assay with BT-549; 4.02 in the assay on HCC-1428. In addition, the Synergy score with HCC-1806 came out at 1.01; with HCC-1937, 1.44; in the assay on HCC70 it was 9.58; in the assay on Hs-578-T, 1.19; in the assay with MCF7, 0.15; in the assay with MDA-MB-157, 3.94. The Synergy score in the assay with MDA-MB-231 is listed as 1.22; in the assay on MDA-MB-436 it was 0.33; in the assay with MDA-MB-468, 5.46.
For `COc1ccc(Cl)c(Nc2nc3ccccc3nc2NS(=O)(=O)c2cccc(NC(=O)C(C)(C)N)c2)c1` [XL147], the Synergy score in the assay on BT-20 is given as 0.23; in the assay with HCC-1187 it was 5.02; with HCC-1500, 2.87; in the assay on BT-474, 1.81; in the assay on BT-549 it was 0.18; with HCC-1428 it was 0.43. The Synergy score with HCC-1806 worked out at 1.06; in the assay with HCC-1937, 0.64; in the assay with HCC70, 0.09; in the assay on Hs-578-T, 0.77; in the assay on MCF7, 0.18; in the assay on MDA-MB-157, 1.99. The Synergy score in the assay with MDA-MB-231 is 0.57; in the assay with MDA-MB-436, 0.67; in the assay with MDA-MB-468, 0.34.
With `CCc1cc(Nc2nccc(-c3c(-c4ccc(OC)c(C(=O)Nc5c(F)cccc5F)c4)nc4ccccn34)n2)c(OC)cc1N1CCC(N2CCN(S(C)(=O)=O)CC2)CC1` [GSK1904529A], the Synergy score with BT-20 is reported as 1.07; in the assay with HCC-1187, 1.68; with HCC-1500, 1.63; with BT-474, 1.09; with BT-549, 0.81; with HCC-1428, 0.16. The Synergy score in the assay on HCC-1806 stood at 1.00; in the assay with HCC-1937, 1.86; in the assay with HCC70 it was 2.15; in the assay on Hs-578-T, 0.97; in the assay with MCF7, 2.77; with MDA-MB-157, 0.82. Further, the Synergy score with MDA-MB-231 stood at 0.09; in the assay on MDA-MB-436, 1.22; in the assay on MDA-MB-468, 2.44.
As for `O=C(O)c1ccc2c(c1)nc(Nc1cccc(Cl)c1)c1ccncc12` [CX-4945], the Synergy score in the assay with BT-20 amounted to 6.09; in the assay on HCC-1187 it was 7.53; in the assay on HCC-1500, 2.93; in the assay on BT-474, 4.91; in the assay on BT-549 it was 3.41; in the assay with HCC-1428, 3.28. The Synergy score came to 4.19 in the assay with HCC-1806; 7.92 in the assay with HCC-1937; 10.60 in the assay on HCC70; 5.97 in the assay with Hs-578-T; 2.26 in the assay with MCF7; 4.55 with MDA-MB-157. Moreover, the Synergy score with MDA-MB-231 was 2.30; with MDA-MB-436, 1.70; in the assay on MDA-MB-468, 6.73.
On to `C=CC(=O)Nc1ccc2ncnc(Nc3ccc(OCc4cccc(F)c4)c(Cl)c3)c2c1` [AST-1306], for which the Synergy score was 7.60 in the assay on BT-20; 2.17 in the assay on HCC-1187; 0.96 in the assay with HCC-1500; 4.02 in the assay on BT-474; 4.88 with BT-549; 2.69 in the assay with HCC-1428. Moreover, the Synergy score is 5.59 in the assay on HCC-1806; 6.39 with HCC-1937; 7.50 with HCC70; 4.43 in the assay on Hs-578-T; 4.34 in the assay with MCF7; 3.02 in the assay with MDA-MB-157. In addition, the Synergy score in the assay on MDA-MB-231 is given as 4.37; with MDA-MB-436 it was 2.08; in the assay on MDA-MB-468, 5.65.
On to `Clc1ccc(C2(c3ccc(-c4cn[nH]c4)cc3)CCNCC2)cc1` [AT7867], for which the Synergy score was determined as 3.07 with BT-20; 4.19 in the assay with HCC-1187; 2.00 in the assay on HCC-1500; 1.83 in the assay on BT-474; 4.50 in the assay on BT-549; 1.42 in the assay with HCC-1428. In addition, the Synergy score is listed as 2.04 in the assay on HCC-1806; 1.72 with HCC-1937; 4.28 in the assay with HCC70; 5.24 in the assay with Hs-578-T; 1.39 in the assay on MCF7; 3.19 in the assay on MDA-MB-157. The Synergy score is given as 3.58 with MDA-MB-231, 1.95 with MDA-MB-436 and 3.60 in the assay on MDA-MB-468.
Consider `CC[C@@]1(O)C(=O)OCc2c1cc1n(c2=O)Cc2cc3cc(O)ccc3nc2-1` [10-Hydroxycamptothecin], for which the Synergy score in the assay on BT-20 is recorded as 6.15; in the assay on HCC-1187, 6.49; with HCC-1500, 4.43; in the assay on BT-474, 1.20; in the assay on BT-549, 4.11; in the assay with HCC-1428, 4.13. The Synergy score with HCC-1806 stood at 3.88; with HCC-1937, 12.40; in the assay on HCC70 it was 6.31; in the assay with Hs-578-T, 1.70; with MCF7, 3.80; in the assay on MDA-MB-157, 10.30. The Synergy score is listed as 8.55 in the assay with MDA-MB-231, 3.62 with MDA-MB-436 and 7.86 in the assay with MDA-MB-468.

The values above are taken from patent US9737535B2, “Methods for treating cancer using TOR kinase inhibitor combination therapy comprising administering substituted pyrazino[2,3-b]pyrazines” (Signal Pharmaceuticals, LLC, priority 2014, dated 2017).
